# Data taken from publication PMC8826726, “Selective Toxicity of Secondary Metabolites from the Entomopathogenic Bacterium Photorhabdus luminescens sonorensis against Selected Plant Parasitic Nematodes of the Tylenchina Suborder” (Microbiology Spectrum, 2022).
# Read-outs that look alike come from different tables or passages of the source.
# Tests used:
# H. bacteriophora = test: In vitro nematistatic assay (temporary paralysis), non-target species; assay type: cell-based; details: Heterorhabditis bacteriophora; reversible paralysis, 24 h exposure
# R. blumi = test: as above; assay type: cell-based, Rhabditis blumi
# H. sonorensis = test: as above; assay type: cell-based; details: Heterorhabditis sonorensis; reversible paralysis, 24 h exposure
# [1] = system: Tylenchulus semipenetrans J2 juveniles; test: microbe, parasite or virus in culture; details: Tylenchulus semipenetrans, 24 h
# From the text: (§1) Only soil inhabiting (free-living or infective) stages of target and non-target nematode species were considered in the present study. All nematode cultures (except T. semipenetrans) were maintained in the Stock laboratory (University of Arizona). M. incognita was reared in planta using susceptible tomato plants (cv. Roma VF; seedlings with five or six true leaves; courtesy of Dr. J. Brown, University of Arizona). Eggs of M. incognita were extracted from infected tomato plant roots, and J2 were collected after hatching, following the procedures of Atamian et al. ([50]). T. semipenetrans was isolated from infested lemon orchards at the Yuma Agricultural Center, University of Arizona (Yuma, AZ, USA). Eggs of T. semipenetrans were extracted from infected lemon tree roots using the procedures of El-Borai et al. ([51]), and J2 were collected using the same procedure as that described for M. incognita.
# (§2) Twelve-well tissue culture plates were used as the experimental arena. For each of the tested nematode species, an inoculum of 100 nematodes, suspended in 20 μL distilled water, was added to each well. […] For PPA (Enamine) and indole (Alfa Aesar), 13 incremental concentrations were tested ranging from 10 to 400 μg/mL in 1 mL of distilled water (DMSO ≤ 1%; vol/vol). […] Distilled water with 1% DMSO was used as the negative control. To measure the combined nematicidal effects of the three SMs, equal concentrations of two or three SMs were mixed in 1:1 or 1:1:1 mixture. For example, a 20 μg/mL solution of a two-SM mixture contained 20 μg from metabolite A and 20 μg metabolite B, dissolved in 1 mL distilled water. Individual or combined SMs from 10 μg/mL to 200 μg/mL (in 20 μg/ml increments) were prepared in distilled water (DMSO ≤ 1%; vol/vol) and used for the bioassays.
# (§3) The well plates were covered with their lids and incubated at 25°C in the dark. For the targeted nematode species, nematicidal activity was recorded at 24 h, 48 h, and 72 h after initial exposure to the individual SMs. For the non-target species, data were only recorded at 24 h after initial exposure to the individual SMs. For SM mixtures, mortality was recorded 24 h after initial exposure of the targeted nematode species. Nematodes were probed with a needle to assess if they were alive, dead, or paralyzed. […] Those nematodes that resumed activity upon probing were considered to suffer from temporary paralysis (impaired motility). Paralyzed nematodes were rinsed at least three times in distilled water and held for an additional 24 h to check for their recovery from temporarily paralysis. […] Experiments were repeated at least three times per treatment for each concentration tested.
# (§4) For the toxicity data visualization, the relationship between percent mortality or temporary paralysis and metabolite concentration were described by a sigmoidal curve, which was fitted by the logistical function using the statistical software package SigmaPlot for Windows, version 14.0 (Systat Software Inc.). […] Concentration-response data of single metabolites or SM mixtures were pooled for each concentration and subjected to probit regression analysis using the Polo Plus program (LeOra Software). The LC or EC values, along with the corresponding 95% confidence intervals, were estimated for each single SM or SM mixture at each exposure time, depending on the experimental setting.
# [2] = system: Meloidogyne incognita J2 juveniles; test: microbe, parasite or virus in culture; details: Meloidogyne incognita, 24 h
# From the text: as §1, §2, §3, §4
# C. elegans = test: In vitro nematistatic assay (temporary paralysis), non-target species; assay type: cell-based; details: Caenorhabditis elegans; reversible paralysis, 24 h exposure
# [3] = system: NCI-H460 (non-small cell lung cancer); test: MTT cytotoxicity assay; assay type: cell-based, human; details: tested at 50, 100, 200 μM, data not shown
# Experimental: (§5) The non-cancerous HFF cells (human foreskin cells) and three human cancer cell lines, NCI-H460 (non-small cell lung cancer), SF-268 (central nervous system glioma), and MCF-7 (breast cancer) were used to evaluate the in vitro cytotoxicity of the isolated Photorhabdus SMs. The MTT (3-(4,5-dimethylthiazol-2-yl)-2,5-diphenyltetrazolium bromide) colorimetric method ([54]) was used with doxorubicin as the positive control, and DMSO as the negative control. Photorhabdus SMs were tested at 50, 100, and 200 μM concentrations, and the assays were repeated three times.
# MCF-7 (breast cancer) = test: MTT cytotoxicity assay; assay type: cell-based, human; details: tested at 50, 100, 200 μM, data not shown
# Experimental: as §5
# [4] = system: SF-268 (central nervous system glioma); test: MTT cytotoxicity assay; assay type: cell-based, human; details: tested at 50, 100, 200 μM, data not shown
# Experimental: as §5
# [5] = system: HFF cells (human foreskin cells); test: MTT cytotoxicity assay; assay type: cell-based; details: tested at 50, 100, 200 μM, data not shown
# Experimental: as §5
# [6] = system: non-target nematodes versus targeted PPNs; test: Selectivity index, non-target nematodes over targeted PPNs
# Experimental: The selectivity index of a given SM was calculated by dividing the averages of the LC50 or EC50 values obtained against each of the selected non-target nematodes by the LC50 or the EC50 values observed for each of the targeted PPN tested.
# Meloidogyne incognita J2 = test: Recovery from indole-induced temporary paralysis after rinsing with water; assay type: cell-based
# [7] = system: Meloidogyne incognita J2 juveniles; test: In vitro nematistatic assay (temporary paralysis); assay type: cell-based
# S. carpocapsae = test: In vitro nematistatic assay (temporary paralysis), non-target species; assay type: cell-based; details: Steinernema carpocapsae; reversible paralysis, 24 h exposure
smiles,measurement,setting,value
"c1ccc2[nH]ccc2c1 [Indole, indole]",EC50,H. bacteriophora,> 400 µg/mL
same,Reduction of 24-h EC50 against R. blumi versus C. elegans,R. blumi; 24 h,77%
same,EC50,"R. blumi; Metarhabditis blumi, reversible paralysis, 24 h exposure",37 µg/mL
same,EC50,H. sonorensis,> 400 µg/mL
same,LC50,[1],388 µg/mL
same,LC50,[2],307 µg/mL
same,EC50,C. elegans,159 µg/mL
same,In vitro cytotoxicity: none even at the highest concentration tested,[3],> 200 µM
same,In vitro cytotoxicity: none even at the highest concentration tested,MCF-7 (breast cancer),> 200 µM
same,In vitro cytotoxicity: none even at the highest concentration tested,[4],> 200 µM
same,In vitro cytotoxicity: none even at the highest concentration tested,[5],> 200 µM
same,"Selectivity index (EC50), bacteria-feeding nematodes alone",[6]; 24 h EC50,2–3
same,"Selectivity index (EC50), entomopathogenic nematodes alone",[6]; 24 h EC50,7-11
same,"Selectivity index (EC50), selected non-target nematode species","[6]; 24 h EC50, all non-target species",5–8
same,Recovery after 24 h in water,"Meloidogyne incognita J2; 60 μg/mL, 24-h exposure to treatment",95.9%
same,Recovery after 24 h in water,"Meloidogyne incognita J2; 60 μg/mL, 72-h exposure to treatment",95.5%
same,Recovery after 24 h in water,"Meloidogyne incognita J2; 80 μg/mL, 24-h exposure to treatment",94.9%
same,Recovery after 24 h in water,"Meloidogyne incognita J2; 80 μg/mL, 72-h exposure to treatment",92.8%
same,M. incognita regaining baseline mobility during a recovery period of 24 h,Meloidogyne incognita J2; regardless of length of prior exposure (24 h to 72 h),over 90%
same,EC10,[7]; 24 h exposure,"41.3 (36.8, 44.9) μg/mL"
same,EC25,[7]; 24 h exposure,"47.8 (43.9, 51.1) μg/mL"
same,EC50,[7]; 24 h exposure,56.3 µg/mL
same,EC10,[7]; 48 h exposure,"44.3 (36.8, 49.7) μg/mL"
same,EC25,[7]; 48 h exposure,"51.7 (45.0, 56.6) μg/mL"
same,EC10,[7]; 72 h exposure,"62.9 (31.4, 72.3) μg/mL"
same,EC25,[7]; 72 h exposure,"68.9 (42.1, 76.9) μg/mL"
same,EC50,"[7]; Meloidogyne incognita, 24 h, 24 h exposure, read-out: EC50",56 µg/mL
same,EC90,"[7]; Meloidogyne incognita, 24 h exposure",77 µg/mL
same,EC50,"[7]; Meloidogyne incognita, 48 h, 48 h exposure, read-out: EC50",61.3 µg/mL
same,EC90,"[7]; Meloidogyne incognita, 48 h exposure",84.7 µg/mL
same,EC50,"[7]; Meloidogyne incognita, 72 h, 72 h exposure, read-out: EC50",76.3 µg/mL
same,EC90,"[7]; Meloidogyne incognita, 72 h exposure",92.5 µg/mL
same,EC50,S. carpocapsae,> 400 µg/mL
